ChEMBL document CHEMBL1135846, “In vivo active antimalarial isonitriles” (Bioorg Med Chem Lett, 2002)
Converted amounts (≈) assume the structure as drawn. One block for each compound: values may come before it.

Legend:
[1] = system: Plasmodium falciparum; test: In vitro antimalarial activity for Plasmodium falciparum NF54; assay type: functional
[2] = system: Mus musculus; test: Antimalarial activity of compound against multidrug-resistant strain of Plasmodium yoelii in 5 Swiss mice (Mus musculus) treated at a dose of 100 mg/kg/day; assay type: functional
[3] = system: Mus musculus; test: Antimalarial activity of compound against multidrug-resistant strain of Plasmodium yoelii in Swiss mice (Mus musculus) at a dose of 100 mg/kg/day (percent suppression on day 4); assay type: functional
[4] = system: Mus musculus; test: Antimalarial activity of compound against multidrug-resistant strain of Plasmodium yoelii in 5 Swiss mice (Mus musculus) treated at a dose of 50 mg/kg/day; assay type: functional
[5] = system: Mus musculus; test: Antimalarial activity of compound against multidrug-resistant strain of Plasmodium yoelii in Swiss mice (Mus musculus) at a dose of 50 mg/kg/day (percent suppression on day 4); assay type: functional
[6] = system: Mus musculus; test: Antimalarial activity of compound against multidrug-resistant strain of Plasmodium yoelii in Swiss mice (Mus musculus) at a dose of 50 mg/kg/day (percent suppression on day 4-nil); assay type: functional, organism-based
[7] = system: Mus musculus; test: Antimalarial activity of compound against multidrug-resistant strain of Plasmodium yoelii in 5 Swiss mice (Mus musculus) at a dose of 50 mg/kg/day; assay type: functional
[8] = system: Mus musculus; test: Antimalarial activity of compound against multidrug-resistant strain of Plasmodium yoelii in 5 Swiss mice (Mus musculus) at a dose of 100 mg/kg/day; assay type: functional
[9] = system: Mus musculus; test: Number of mice alive on day 28 treated with a dose of 50 mg/kg/day; assay type: functional
[10] = system: Mus musculus; test: Number of mice alive on day 28 treated with a dose of 25 mg/kg/day; assay type: functional
[11] = system: Mus musculus; test: Antimalarial activity of compound against multidrug-resistant strain of Plasmodium yoelii in 5 Swiss mice (Mus musculus) treated at a dose of 12.5 mg/Kg/day; assay type: functional
[12] = system: Mus musculus; test: Mean survival time of animals was calculated after administering a dose of 50 mg/kg/day during 28-day observation period; assay type: functional
[13] = system: Mus musculus; test: Number of mice alive on day 28 treated with a dose of 12.5 mg/kg/day; assay type: functional
[14] = system: Mus musculus; test: Antimalarial activity of compound against multidrug-resistant strain of Plasmodium yoelii in Swiss mice (Mus musculus) at a dose of 12.5 mg/kg/day (percent suppression on day 4); assay type: functional
[15] = system: Mus musculus; test: Mean survival time of animals was calculated after administering a dose of 6.25 mg/Kg/day during 28-day observation period; assay type: functional
[16] = system: Mus musculus; test: Antimalarial activity of compound against multidrug-resistant strain of Plasmodium yoelii in 5 Swiss mice (Mus musculus) treated at a dose of 6.25 mg/Kg/day; assay type: functional
[17] = system: Mus musculus; test: Mean survival time of animals was calculated after administering a dose of 25 mg/kg/day during 28-day observation period; assay type: functional
[18] = Antimalarial activity of compound against multidrug-resistant strain of Plasmodium yoelii in Swiss mice (Mus musculus) at a dose of 100 mg/kg/day (percent suppression on day 4); toxic; assay type: organism-based; conditions: in vivo
[19] = system: Mus musculus; test: Mean survival time of animals was calculated after administering a dose of 12.5 mg/kg/day during 28-day observation period; assay type: functional
[20] = system: Mus musculus; test: Antimalarial activity of compound against multidrug-resistant strain of Plasmodium yoelii in Swiss mice (Mus musculus) at a dose of 25 mg/kg/day (percent suppression on day 4); assay type: functional
[21] = system: Mus musculus; test: Antimalarial activity of compound against multidrug-resistant strain of Plasmodium yoelii in Swiss mice (Mus musculus) at a dose of 6.25 mg/kg/day (percent suppression on day 4); assay type: functional
[22] = system: Mus musculus; test: In vivo antimalarial activity of compound against multidrug-resistant strain of Plasmodium yoelii in 5 Swiss mice (Mus musculus) treated at a dose of 25 mg/kg/day; assay type: functional
[23] = system: Mus musculus; test: Number of mice alive on day 28 treated with a dose of 6.25 mg/kg/day; assay type: functional

SMILES: C[C@@H]1CC[C@H]2[C@@H](C)C(=O)O[C@@H]3O[C@@]4(C)CC[C@@H]1[C@]32OO4 [ARTEMISININ]
MIC [1]: 0.03 µg/mL (≈ 0.106 µM)

SMILES: [C-]#[N+]c1ccc2ccccc2c1
MIC [1]: 50 µg/mL (≈ 326 µM)

SMILES: [C-]#[N+]c1ccc(-c2ccccc2)cc1
No. of mice cured [2]: 0
Supression [3]: 62.79%
MIC [1]: 1 µg/mL (≈ 5.58 µM)
No. of mice cured [4]: 0
Supression [5]: 32.98%

SMILES: [C-]#[N+]c1ccc(C(C)=O)cc1
Supression [3]: 35.72%
Supression [6]: Nil
No. of mice cured [7]: 0
MIC [1]: 2 µg/mL (≈ 13.8 µM)
No. of mice cured [8]: 0

SMILES: [C-]#[N+]C12CC3CC(CC(C3)C1)C2
Survival [9]: 2
No. of mice cured [2]: 0
Survival [10]: 1
No. of mice cured [11]: 0
MST [12]: 16.3
Survival [13]: 0
Supression [14]: 73%
MST [15]: 8.2
No. of mice cured [16]: 0
MST [17]: 12.8
Supression [18]: Toxic
MST [19]: 11.8
MIC [1]: 0.4 µg/mL (≈ 2.48 µM)
No. of mice cured [4]: 2
Supression [20]: 99.8%
Supression [21]: 19%
No. of mice cured [22]: 0
Supression [5]: 100%
Survival [23]: 0

SMILES: [C-]#[N+]c1ccc2c(c1)Cc1ccccc1-2
No. of mice cured [2]: 0
Supression [3]: 21.35%
MIC [1]: 2 µg/mL (≈ 10.5 µM)
No. of mice cured [4]: 0
Supression [5]: 6.34%

Other lines, results leading:

MIC [1]: > 50 µg/mL
SMILES: [C-]#[N+][C@H]1CC[C@@]2(C)[C@@H](CC[C@@H]3[C@@H]2CC[C@]2(C)[C@@H]([C@H](C)CCCC(C)C)CC[C@@H]32)C1

MIC [1]: > 50 µg/mL
SMILES: [C-]#[N+]C1CC[C@@]2(C)[C@@H](CC[C@@H]3[C@@H]2CC[C@]2(C)[C@@H]([C@H](C)CCCC(C)C)CC[C@@H]32)C1 (some centres not stated)

MIC [1]: 0.04 µg/mL (≈ 0.125 µM)
SMILES: CCN(CC)CCCC(C)Nc1ccnc2cc(Cl)ccc12 (configuration not stated) [CHLOROQUINE]

MIC [1]: 50 µg/mL (≈ 303 µM)
SMILES: [C-]#[N+]C1C[C@H](C)CC[C@H]1C(C)C (some centres not stated)

MIC [1]: 50 µg/mL (≈ 326 µM)
SMILES: [C-]#[N+]c1cccc2ccccc12

MIC [1]: 50 µg/mL (≈ 192 µM)
SMILES: [C-]#[N+]c1ccc(Br)cc1Br
